Source: patent publication US12686673B2 (Blueprint Medicines Corporation, priority 2020, dated 2026)
Read-outs that look alike come from different tables or passages of the source.

Tests used:
Assay type in all cases: cell-based
A431 cells = assay: Cellular proliferation (Alamar Blue) assay, A431
Method: (§1) • 1. EGFR(D770_N771insSVD) expressing Ba/F3 stable cell line • 2. EGFR (A767_dupASV) expressing Ba/F3 stable cell line • 3. A431 cells • 4. EGFR (H773insNPH) expressing Ba/F3 stable cell line • 5. HER2 (A775_G776insYVMA) expressing Ba/F3 stable cell line Assay Procedure: • 1. Seed cells at 5000 for A431 and 15,000 cells for Ba/F3 in 100 μL/well in complete media (for A431: DMEM with […] and for Ba/F3 cells: RPMI with 10% FBS) in 96-well tissue culture plate. Leave outer wells without cells for background measurements. Incubate at 37 degree Celsius in […] humidified incubator for 16-18 hours. • 2. Add 0.025 ml of 5× concentration compound dilution or DMSO control. Final compound concentration range is 10-0.0005 μM prepared in 3-fold serial dilutions. Incubate for 72 hr at 37 degree Celsius in […] humidified incubator. • 3. Add 0.0125 ml Alamar Blue™ reagent to each well with multi-channel pipette and tap gently on each side of the plate to mix. Incubate for 3 hours at 37 degree Celsius in 5% CO2 humidified incubator. • 4. […] Data analysis was performed using XLfit 5.5.0.5.

[1] = target: EGFR(D770_N771insSVD) expressing Ba/F3 stable cell line (Homo sapiens, UniProt P00533, DUP768-770, cells depend on it); assay: Cellular proliferation (Alamar Blue) assay, EGFR D770_N771insSVD Ba/F3; settings: 72 hr, read-out: D770 IC50
Method: as §1

[2] = target: EGFR (A767_dupASV) expressing Ba/F3 stable cell line (Homo sapiens, UniProt P00533, DUP767-769, cells depend on it); assay: Cellular proliferation (Alamar Blue) assay, EGFR A767_dupASV Ba/F3; settings: 72 hr, read-out: A767 IC50
Method: as §1

[3] = Homo sapiens, A-431; A431 cells, Alamar Blue, 72 hr; read-out: A431 IC50
[4] = Homo sapiens, A-431; A431 cells, 72 hr, Alamar Blue; read-out: A431 IC50

EGFR (A767_dupASV) expressing Ba/F3 stable cell line, sequence (P00533 with tags, fused parts or gaps DUP767-769): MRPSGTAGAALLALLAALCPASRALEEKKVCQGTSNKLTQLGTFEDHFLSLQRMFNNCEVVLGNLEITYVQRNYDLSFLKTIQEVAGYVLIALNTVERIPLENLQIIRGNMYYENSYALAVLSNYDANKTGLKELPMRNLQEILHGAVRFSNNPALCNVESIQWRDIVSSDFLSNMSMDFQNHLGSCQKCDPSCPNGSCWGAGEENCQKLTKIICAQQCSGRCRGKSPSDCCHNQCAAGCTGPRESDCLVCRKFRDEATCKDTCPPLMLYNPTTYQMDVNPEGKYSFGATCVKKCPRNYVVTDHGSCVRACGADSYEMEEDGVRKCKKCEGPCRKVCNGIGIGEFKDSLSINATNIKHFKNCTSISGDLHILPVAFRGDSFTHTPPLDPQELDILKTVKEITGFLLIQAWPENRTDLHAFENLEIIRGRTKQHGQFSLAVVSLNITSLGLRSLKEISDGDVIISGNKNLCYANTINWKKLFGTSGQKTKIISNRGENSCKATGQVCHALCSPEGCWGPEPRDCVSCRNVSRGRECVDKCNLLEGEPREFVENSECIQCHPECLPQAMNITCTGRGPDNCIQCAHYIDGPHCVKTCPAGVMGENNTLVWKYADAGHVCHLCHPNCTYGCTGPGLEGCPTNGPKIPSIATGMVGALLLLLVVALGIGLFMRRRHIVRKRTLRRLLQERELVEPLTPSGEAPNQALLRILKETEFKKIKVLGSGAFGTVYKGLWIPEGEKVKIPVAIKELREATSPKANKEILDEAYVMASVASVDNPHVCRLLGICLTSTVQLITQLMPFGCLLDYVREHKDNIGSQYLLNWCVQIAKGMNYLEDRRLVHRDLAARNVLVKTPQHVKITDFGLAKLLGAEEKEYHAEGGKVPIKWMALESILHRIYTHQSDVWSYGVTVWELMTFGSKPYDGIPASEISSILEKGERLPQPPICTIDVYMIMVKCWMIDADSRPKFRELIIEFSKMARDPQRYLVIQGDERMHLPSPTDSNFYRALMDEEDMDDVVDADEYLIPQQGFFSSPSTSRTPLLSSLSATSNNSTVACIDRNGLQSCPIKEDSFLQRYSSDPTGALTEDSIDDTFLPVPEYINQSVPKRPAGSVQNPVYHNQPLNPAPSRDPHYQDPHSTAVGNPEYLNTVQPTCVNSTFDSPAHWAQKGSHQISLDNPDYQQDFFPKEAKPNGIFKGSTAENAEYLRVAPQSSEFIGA
EGFR(D770_N771insSVD) expressing Ba/F3 stable cell line, sequence (P00533 with tags, fused parts or gaps DUP768-770): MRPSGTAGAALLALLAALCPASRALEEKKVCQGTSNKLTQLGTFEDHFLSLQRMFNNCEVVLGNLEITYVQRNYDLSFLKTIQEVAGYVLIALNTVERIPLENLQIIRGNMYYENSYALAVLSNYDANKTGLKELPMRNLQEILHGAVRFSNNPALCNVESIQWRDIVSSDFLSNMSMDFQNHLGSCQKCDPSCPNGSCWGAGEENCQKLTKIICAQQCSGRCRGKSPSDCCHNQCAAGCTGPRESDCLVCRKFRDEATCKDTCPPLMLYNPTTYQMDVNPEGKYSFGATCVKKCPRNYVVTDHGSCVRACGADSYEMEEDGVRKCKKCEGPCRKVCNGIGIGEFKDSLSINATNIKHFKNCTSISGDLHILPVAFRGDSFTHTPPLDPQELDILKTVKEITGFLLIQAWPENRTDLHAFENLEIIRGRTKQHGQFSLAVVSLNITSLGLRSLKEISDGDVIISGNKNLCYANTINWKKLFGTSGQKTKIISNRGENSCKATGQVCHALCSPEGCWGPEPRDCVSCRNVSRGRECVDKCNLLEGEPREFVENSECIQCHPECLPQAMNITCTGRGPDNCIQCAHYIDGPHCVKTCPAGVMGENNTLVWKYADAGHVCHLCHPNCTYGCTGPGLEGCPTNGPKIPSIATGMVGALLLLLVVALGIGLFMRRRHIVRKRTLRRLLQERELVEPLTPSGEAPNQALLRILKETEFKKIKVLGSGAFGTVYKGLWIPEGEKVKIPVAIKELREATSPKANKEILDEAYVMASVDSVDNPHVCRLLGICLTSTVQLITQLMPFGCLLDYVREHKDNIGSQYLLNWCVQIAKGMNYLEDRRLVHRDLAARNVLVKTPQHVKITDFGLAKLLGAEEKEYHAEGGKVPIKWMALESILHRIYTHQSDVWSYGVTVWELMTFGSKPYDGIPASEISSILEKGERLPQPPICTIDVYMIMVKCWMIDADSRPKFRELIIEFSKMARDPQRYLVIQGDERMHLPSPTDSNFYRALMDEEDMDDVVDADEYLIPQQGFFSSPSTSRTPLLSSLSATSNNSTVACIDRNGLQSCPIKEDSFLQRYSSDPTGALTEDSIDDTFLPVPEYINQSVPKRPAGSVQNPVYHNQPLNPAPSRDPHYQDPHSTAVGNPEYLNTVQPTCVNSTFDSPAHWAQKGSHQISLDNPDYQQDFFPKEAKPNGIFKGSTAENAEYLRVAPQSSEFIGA

SMILES | IC50 (A431 cells; [3]) [µM] | GI50 [1] [µM] | GI50 [2] [µM] | IC50 (A431 cells; [4]) [µM]
C=CC(=O)Nc1cccc(Oc2nc(Nc3ccc(N4CCN(C)CC4)cc3OC)ncc2-c2ccc(C(F)(F)F)cc2)c1 [Compound 191, N-(3-((2-((2-methoxy-4-(4-methylpiperazin-1-yl)phenyl)amino)-5-(4-(trifluoromethyl)phenyl)pyrimidin-4-yl)oxy)phenyl)acrylamide] | 0.898 | > 10 | 9.65 | 
C=CC(=O)Nc1cccc(Oc2nc(Nc3cnn(C)c3)ncc2C2=CCOCC2)c1 [Compound 192, N-(3-((5-(3,6-dihydro-2H-pyran-4-yl)-2-((1-methyl-1H-pyrazol-4-yl)amino)pyrimidin-4-yl)oxy)phenyl)acrylamide] | 0.258 | 0.267 | 0.241 | 
C=CC(=O)Nc1cccc(Oc2nc(Nc3ccccc3OC)ncc2-c2ccc(C(F)(F)F)cc2)c1 [Compound 193, N-[3-({2-[(2-methoxyphenyl)amino]-5-[4-(trifluoromethyl)phenyl]pyrimidin-4-yl}oxy)phenyl]prop-2-enamide] | 8.76 | > 10 | > 10 | 
C=CC(=O)Nc1cccc(Oc2nc(NC3CC3)ncc2-c2ccc(C(F)(F)F)cc2)c1 [Compound 194, N-(3-((2-(cyclopropylamino)-5-(4-(trifluoromethyl)phenyl)pyrimidin-4-yl)oxy)phenyl)acrylamide] | > 10 | > 10 | > 10 | 
C=CC(=O)Nc1ccnc(Nc2nc(Nc3cnn(C)c3)ncc2-c2ccc(C(F)(F)F)cc2)c1 [Compound 196, N-(2-((2-((1-methyl-1H-pyrazol-4-yl)amino)-5-(4-(trifluoromethyl)phenyl)pyrimidin-4-yl)amino)pyridin-4-yl)acrylamide] | 7.55 | 3.21 | 8.47 | 
C=CC(=O)Nc1cccc(Nc2nc(Nc3cnn(C)c3)ncc2-c2ccc(C(F)(F)F)cc2)n1 [Compound 197, N-(6-((2-((1-methyl-1H-pyrazol-4-yl)amino)-5-(4-(trifluoromethyl)phenyl)pyrimidin-4-yl)amino)pyridin-2-yl)acrylamide] | 0.373 | 0.395 | 0.448 | 
C=CC(=O)Nc1cc(Nc2nc(Nc3cnn(C)c3)ncc2-c2ccc(C(F)(F)F)cc2)c(F)cn1 [Compound 198, N-[5-fluoro-4-({2-[(1-methyl-1H-pyrazol-4-yl)amino]-5-[4-(trifluoromethyl)phenyl]pyrimidin-4-yl}amino)pyridin-2-yl]prop-2-enamide; trifluoroacetic acid] |  | 1.27 | 2.64 | 2.14
C=CC(=O)Nc1cc(Nc2nc(Nc3cnn(C)c3)ncc2-c2ccc(C(F)(F)F)cc2)ccc1N(C)CCN(C)C [Compound 199, N-(2-{[2-(dimethylamino)ethyl](methyl)amino}-5-({2-[(1-methyl-1H-pyrazol-4-yl)amino]-5-[4-(trifluoromethyl)phenyl]pyrimidin-4-yl}amino)phenyl)prop-2-enamide] |  | 0.239 | 0.704 | 0.716
C=CC(=O)Nc1cc(Nc2nc(Nc3cnn(C)c3)ncc2-c2ccc(C(F)(F)F)cc2)ccn1 [Compound 200, N-(4-((2-((1-methyl-1H-pyrazol-4-yl)amino)-5-(4-(trifluoromethyl)phenyl)pyrimidin-4-yl)amino)pyridin-2-yl)acrylamide] |  | 6.02 | 2.76 | 1.28
C=CC(=O)Nc1cc(F)cc(Nc2nc(Nc3cnn(C)c3)ncc2-c2ccc(Br)cc2)c1 [Compound 207, N-(3-((5-(4-bromophenyl)-2-((1-methyl-1H-pyrazol-4-yl)amino)pyrimidin-4-yl)amino)-5-fluorophenyl)acrylamide] |  | 0.032 | 0.031 | 0.049
C=CC(=O)Nc1cccc(-n2c3cc(C(F)(F)F)ccc3c3cnc(Nc4cnn(C)c4)nc32)c1 [Compound 209] |  | 7.97 | 9.86 | 5.41
C=CC(=O)Nc1ccc(F)c(Nc2nc(Nc3cc(C)ns3)ncc2-c2ccc(C(F)(F)F)cc2)c1 [Compound 211, N-[4-fluoro-3-({2-[(3-methyl-1,2-thiazol-5-yl)amino]-5-[4-(trifluoromethyl)phenyl]pyrimidin-4-yl}amino)phenyl]prop-2-enamide] |  | 0.404 | 0.667 | 1.6

The remaining lines, values ahead:

IC50 (A431 cells; [3]) [µM] | GI50 [1] [µM] | GI50 [2] [µM] | IC50 (A431 cells; [4]) [µM] | SMILES
 | 0.884 | 1.57 | > 10 | C=CC(=O)Nc1ccc(F)c(Nc2nc(Nc3cc(C)sn3)ncc2-c2ccc(C(F)(F)F)cc2)c1 [Compound 212, N-(4-fluoro-3-((2-((5-methylisothiazol-3-yl)amino)-5-(4-(trifluoromethyl)phenyl)pyrimidin-4-yl)amino)phenyl)acrylamide]
 | 1.29 | 3.68 | 1.82 | C=CC(=O)Nc1ccc(F)c(Nc2nc(Nc3nc(C)cs3)ncc2-c2ccc(C(F)(F)F)cc2)c1 [Compound 213, N-(4-fluoro-3-((2-((4-methylthiazol-2-yl)amino)-5-(4-(trifluoromethyl)phenyl)pyrimidin-4-yl)amino)phenyl)acrylamide]
 | 0.308 | 0.543 | > 10 | C=CC(=O)Nc1ccc(F)c(Nc2nc(Nc3cn(C)cn3)ncc2-c2ccc(C(F)(F)F)cc2)c1 [Compound 214, N-(4-fluoro-3-((2-((1-methyl-1H-imidazol-4-yl)amino)-5-(4-(trifluoromethyl)phenyl)pyrimidin-4-yl)amino)phenyl)acrylamide]
 | 0.991 | > 10 | 2.27 | C=CC(=O)Nc1ccc(F)c(Nc2nc(Nc3nccs3)ncc2-c2ccc(C(F)(F)F)cc2)c1 [Compound 215, N-(4-fluoro-3-((2-(thiazol-2-ylamino)-5-(4-(trifluoromethyl)phenyl)pyrimidin-4-yl)amino)phenyl)acrylamide]
 | 0.916 | 1.13 | > 10 | C=CC(=O)Nc1ccc(F)c(Nc2nc(Nc3csc(C)c3)ncc2-c2ccc(C(F)(F)F)cc2)c1 [Compound 217, N-(4-fluoro-3-((2-((5-methylthiophen-3-yl)amino)-5-(4-(trifluoromethyl)phenyl)pyrimidin-4-yl)amino)phenyl)acrylamide]
 | 1.69 | 8.47 | 1.58 | C=CC(=O)Nc1ccc(F)c(Nc2nc(Nc3cccc(CN(C)C)c3)ncc2-c2ccc(C(F)(F)F)cc2)c1 [Compound 218, N-(3-((2-((3-((dimethylamino)methyl)phenyl)amino)-5-(4-(trifluoromethyl)phenyl)pyrimidin-4-yl)amino)-4-fluorophenyl)acrylamide]
 | 0.11 | 0.211 | 0.133 | C=CC(=O)Nc1ccc(F)c(Nc2nc(Nc3cnn(C4CCOCC4)c3)ncc2-c2ccc(C(F)(F)F)cc2)c1 [Compound 220, N-(4-fluoro-3-((2-((1-(tetrahydro-2H-pyran-4-yl)-1H-pyrazol-4-yl)amino)-5-(4-(trifluoromethyl)phenyl)pyrimidin-4-yl)amino)phenyl)acrylamide]
 | > 10 | > 10 | 8.15 | C=CC(=O)Nc1ccc(F)c(Nc2nc(Nc3cnn(C)c3)ncc2N2CCOCC2)c1 [Compound 222, N-(4-fluoro-3-((2-((1-methyl-1H-pyrazol-4-yl)amino)-5-morpholinopyrimidin-4-yl)amino)phenyl)acrylamide]
